From patent US10703748B2, “Diazanaphthalen-3-yl carboxamides and preparation and use thereof” (Samumed, LLC, priority 2017, dated 2020)
pEC50: −log10 of the molar value. Read-outs that look alike come from different tables or passages of the source.

Tests used:
[1] = system: Wnt-responsive Sp5-Luc reporter in SW480 colon carcinoma cells; assay: Screening assay for Wnt activity (Sp5-Luc reporter gene assay); conditions: for inhibition at 10 µM: SW480, read-out: percent inhibition at 10 μM
[2] = system: α-smooth muscle actin (aSMA) positive LL29 cells; assay: Inhibition of the fibrotic process: αSMA staining in TGF-β1 treated LL29 fibroblasts from IPF patients; conditions: for inhibition at 10 µM: read-out: percentage in parentheses after EC50 >10
[3] = system: secreted cytokines TNFα, IL-6 and KC-GRO; assay: Secreted cytokines in Lipopolysaccharide-stimulated BV-2 cells (Table 9 does not say which cytokine); assay type: cell-based, mouse; conditions: read-out: EC50
IL-6 = IL-6 inhibition in LPS-stimulated human peripheral blood mononuclear cells (HTRF); conditions: for inhibition at 10 µM: read-out: percentage in parentheses after EC50 >10
Description: Each compound was dissolved in DMSO (Catalog # D8418-100 ml, Sigma-Aldrich, St. Louis, Mo.) as a 10 mM stock and used to prepare compound source plates. […] After 22 hour incubation, a mixture of anti-IL6 XL665 and anti-IL-6 Cryptate diluted in reconstitution buffer (Catalog #62IL6PEC, Cisbio Inc., Bedford, Mass.) was added to each well. […] All samples were processed in duplicate. […] EC50 was determined using software generated by Dotmatics Limited (Windhill Bishops Stortford Herts, UK) using the Levenberg-Marquardt 4 parameter fitting procedure with finite different gradients.

DYRK1A kinase = DYRK1A kinase (Homo sapiens, UniProt Q13627); assay: DYRK1A kinase activity (Ser/Thr 18 peptide Z-lyte FRET assay); assay type: biochemical; conditions: recombinant DYRK1A, 30 μM ATP, one hour at room temperature;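 also: kinase activity read as coumarin/fluorescein emission ratio after development step, with unphosphorylated and phosphorylated peptide forms setting 0% and 100% controls, values from dose-response curves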
[4] = system: Tau phosphorylation at Ser396 (pSer396); assay: Tau phosphorylation at Ser396 (pSer396) in SH-SY5Y cells, ELISA / western blot; assay type: cell-based, human; conditions: SH-SY5Y cells, overnight (16-18 h), read-out: pSer396 Tau EC50;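 also: decrease in pSer396 Tau measured in lysates of treated cells by colorimetric ELISA or chemiluminescent western blot, same pSer396 antibody for both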
Description: Two days before treatment, cells were seeded onto 96 well plates at 5×10^4 cells/well.
The above synthesized compounds were screened using the cell assay procedure to assess decrease Tau phosphorylation at Ser396 (pSer396) described below.
Cells were lysed with RIPA buffer complemented with phosphatase and protease inhibitors then lysates were spun down at 12,000 g for 10 min to remove any cellular debris.

[5] = system: SW480 colon carcinoma cells; assay: Cell viability assay (CellTiter-Glo); conditions: for inhibition at 10 µM: SW480, read-out: percent inhibition at 10 μM
GSK3β kinase = GSK3β kinase (Homo sapiens, UniProt P49841); assay: GSK3β kinase activity (Ser/Thr 09 peptide Z-lyte FRET assay); assay type: biochemical; conditions: recombinant kinase, 46 μM ATP, one hour at room temperature; read-out: EC50
Chain of GSK3β kinase (P49841 whole entry): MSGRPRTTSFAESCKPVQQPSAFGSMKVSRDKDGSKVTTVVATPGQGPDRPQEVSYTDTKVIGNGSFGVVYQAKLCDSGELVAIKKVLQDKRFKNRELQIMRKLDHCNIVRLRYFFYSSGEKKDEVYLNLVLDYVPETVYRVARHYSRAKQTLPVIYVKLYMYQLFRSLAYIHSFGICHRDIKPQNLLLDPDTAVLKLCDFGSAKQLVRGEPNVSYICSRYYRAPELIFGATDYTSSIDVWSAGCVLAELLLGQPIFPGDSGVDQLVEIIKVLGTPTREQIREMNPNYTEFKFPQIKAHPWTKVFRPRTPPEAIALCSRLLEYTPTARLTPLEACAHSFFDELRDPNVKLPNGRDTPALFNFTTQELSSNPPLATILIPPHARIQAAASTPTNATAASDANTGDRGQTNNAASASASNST

SMILES	pEC50 ([1]; Homo sapiens, SW480)	pEC50 ([3]; Mus musculus, BV-2, 5 h)	pEC50 (IL-6; Homo sapiens, PBMC, 22 h)	pEC50 (DYRK1A kinase)	pEC50 ([4]; Homo sapiens)	pEC50 ([5]; Homo sapiens, SW480, 96 h)	pEC50 (GSK3β kinase)	pEC50 ([1]; SW480 Sp5-Luc reporter cells, 36 to 48 hours)	pEC50 ([3]; BV-2 cells, LPS 250 ng/mL 5 hours, compounds overnight, 10 μM to […], cytokine not named in Table 9)	pEC50 (IL-6; huPBMCs, LPS 50 ng/mL, 22 hours, curves starting from 10 μM)	percentage in parentheses after EC50 >10 (IL-6; huPBMCs, LPS, given beside >10 μM, meaning not given) [%]	pEC50 [4]	pEC50 ([5]; SW480 cells, four days, CellTiter-Glo)	pEC50 ([2]; Homo sapiens, Fibroblast, 96 h)	inhibition at 10 µM ([1]; Homo sapiens) [%]	inhibition at 10 µM ([2]; Homo sapiens, Fibroblast) [%]	inhibition at 10 µM ([5]; Homo sapiens) [%]	inhibition at 10 µM (IL-6; Homo sapiens, PBMC) [%]	percent inhibition at 10 μM ([1]; at 10 μM, given for EC50 of >10 μM, SW480 Sp5-Luc reporter) [%]	pEC50 ([2]; LL29 fibroblasts from IPF patients, TGF-β1 20 ng/mL, 4 days, curves from 10 μM to 0.94 nM)
Cn1cc(-c2ccc3cnc(NC(=O)[C@H]4CC[C@H](N5CCOCC5)CC4)cc3n2)cn1 [Compound 5, trans-N-(2-(1-methyl-1H-pyrazol-4-yl)-1,6-naphthyridin-7-yl)-4-morpholinocyclohexane-1-carboxamide]	< 5.00	6.40	5.48	8.15	5.70	< 5.00	6.86	–	–	–	–	–	–	< 5.00	47.9	9	39.9	–	–	–
O=C(Nc1cc2nc(-c3cnn4c3CN(CCF)CC4)ccc2cn1)C1CCC(F)(F)CC1 [Compound 317]	–	–	–	–	–	–	–	< 5.00	7.18	< 5.00	8.0	7.46	5.45	–	–	–	–	–	50.0	6.03
Cc1ncc(-c2ccc3cnc(NC(=O)Cn4ccnc4)cc3n2)o1 [Compound 589, 2-(1H-Imidazol-1-yl)-N-(2-(2-methyloxazol-5-yl)-1,6-naphthyridin-7-yl) acetamide]	< 5.00	–	< 5.00	7.30	5.00	< 5.00	6.81	–	–	–	–	–	–	< 5.00	7.8	41.6	22.9	5.9	–	–
C[C@H]1CCCN1CC(=O)Nc1ncc2ccc(-c3cnn(C)c3)cc2n1 [Compound 954, (S)—N-(7-(1-Methyl-1H-pyrazol-4-yl)quinazolin-2-yl)-2-(2-methylpyrrolidin-1-yl)acetamide]	< 5.00	–	< 5.00	7.16	5.77	< 5.00	6.71	–	–	–	–	–	–	5.67	29.6	–	45.1	5.7	–	–
COC1CCN(CC(=O)Nc2ncc3ccc(-c4cn(C)nn4)cc3n2)CC1 [Compound 1264, 2-(4-Methoxypiperidin-1-yl)-N-(7-(1-methyl-1H-1,2,3-triazol-4-yl)quinazolin-2-yl)acetamide]	5.01	–	< 5.00	7.37	6.04	< 5.00	7.77	–	–	–	–	–	–	< 5.00	–	5.7	27.8	7.9	–	–
O=C(Nc1ncc2ccc(-c3cncc(NCC4(F)CNC4)n3)cc2n1)C1CC1 [Compound 1777, N-(7-(6-(((3-Fluoroazetidin-3-yl)methyl)amino)pyrazin-2-yl)quinazolin-2-yl)cyclopropanecarboxamide]	< 5.00	–	< 5.00	8.30	5.00	< 5.00	7.01	–	–	–	–	–	–	< 5.00	35.4	41.1	27.6	2.4	–	–
O=C(Nc1ncc2ccc(-c3cncc(N[C@H]4CCNC[C@@H]4F)n3)cc2n1)C1CC1 [Compound 1785, N-(7-(6-(((3S,4S)-3-Fluoropiperidin-4-yl)amino)pyrazin-2-yl)quinazolin-2-yl)cyclopropanecarboxamide]	5.37	–	< 5.00	8.15	5.25	< 5.00	6.87	–	–	–	–	–	–	5.40	–	–	34.3	8.9	–	–
Cc1nnc(-c2cc3cc(NC(=O)C4CCN(C(=O)c5ccccc5)CC4)ncc3cn2)s1 [Compound 4346, 1-Benzoyl-N-(6-(5-methyl-1,3,4-thiadiazol-2-yl)-2,7-naphthyridin-3-yl) piperidine-4-carboxamide]	< 5.00	–	< 5.00	7.43	5.81	< 5.00	6.87	–	–	–	–	–	–	< 5.00	3.8	21.4	12.2	2.4	–	–

Continued, in another order:

pEC50 ([1]; Homo sapiens, SW480)	pEC50 ([3]; Mus musculus, BV-2, 5 h)	pEC50 (IL-6; Homo sapiens, PBMC, 22 h)	pEC50 (DYRK1A kinase)	pEC50 ([4]; Homo sapiens)	pEC50 ([5]; Homo sapiens, SW480, 96 h)	pEC50 (GSK3β kinase)	pEC50 ([1]; SW480 Sp5-Luc reporter cells, 36 to 48 hours)	pEC50 ([3]; BV-2 cells, LPS 250 ng/mL 5 hours, compounds overnight, 10 μM to […], cytokine not named in Table 9)	pEC50 (IL-6; huPBMCs, LPS 50 ng/mL, 22 hours, curves starting from 10 μM)	percentage in parentheses after EC50 >10 (IL-6; huPBMCs, LPS, given beside >10 μM, meaning not given) [%]	pEC50 [4]	pEC50 ([5]; SW480 cells, four days, CellTiter-Glo)	SMILES	pEC50 ([2]; Homo sapiens, Fibroblast, 96 h)	inhibition at 10 µM ([1]; Homo sapiens) [%]	inhibition at 10 µM ([2]; Homo sapiens, Fibroblast) [%]	inhibition at 10 µM ([5]; Homo sapiens) [%]	inhibition at 10 µM (IL-6; Homo sapiens, PBMC) [%]	percent inhibition at 10 μM ([1]; at 10 μM, given for EC50 of >10 μM, SW480 Sp5-Luc reporter) [%]	pEC50 ([2]; LL29 fibroblasts from IPF patients, TGF-β1 20 ng/mL, 4 days, curves from 10 μM to 0.94 nM)
5.53	5.77	5.50	7.74	6.40	5.61	7.70	–	–	–	–	–	–	Cn1cc(-c2ccc3cnc(NC(=O)C4CC4)cc3n2)cn1 [Compound 2, N-(2-(1-Methyl-1H-pyrazol-4-yl)-1,6-naphthyridin-7-yl) cyclopropanecarboxamide]	6.17	–	–	–	–	–	–
5.50	6.03	5.55	7.85	5.46	5.24	7.00	–	–	–	–	–	–	Cn1cc(-c2ccc3cnc(NC(=O)C4CCNCC4)cc3n2)cn1 [Compound 11, N-(2-(1-Methyl-1H-pyrazol-4-yl)-1,6-naphthyridin-7-yl)piperidine-4-carboxamide]	5.60	–	–	–	–	–	–
5.81	6.95	< 5.00	7.40	6.03	< 5.00	6.56	–	–	–	–	–	–	CC(C)CN1CCC(C(=O)Nc2cc3nc(-c4cnn(C)c4)ccc3cn2)CC1 [Compound 16, 1-Isobutyl-N-(2-(1-methyl-1H-pyrazol-4-yl)-1,6-naphthyridin-7-yl) piperidine-4-carboxamide]	6.60	–	–	45.1	52.2	–	–
5.93	–	< 5.00	7.28	6.77	< 5.00	7.03	–	–	–	–	–	–	CC(C)OCCC(=O)Nc1ncc2ccc(-c3cncn3C)cc2n1 [Compound 1322, 3-Isopropoxy-N-(7-(1-methyl-1H-imidazol-5-yl)quinazolin-2-yl)propanamide]	5.70	–	–	22.2	5.9	–	–
7.04	–	5.06	8.00	7.06	5.44	8.22	–	–	–	–	–	–	CC(C)CN1CCC(CC(=O)Nc2cc3cc(-c4cnn(C)c4)ncc3cn2)C1 (stereo not shown) [Compound 3749, 2-(1-Isobutylpyrrolidin-3-yl)-N-(6-(1-methyl-1H-pyrazol-4-yl)-2,7-naphthyridin-3-yl)acetamide]	6.78	–	–	–	–	–	–
5.82	–	< 5.00	7.80	< 5.00	5.65	6.56	–	–	–	–	–	–	Cn1cc(-c2cc3cc(NC(=O)c4ccnc(OC5CCNCC5)c4)ncc3cn2)cn1 [Compound 3780, N-(6-(1-Methyl-1H-pyrazol-4-yl)-2,7-naphthyridin-3-yl)-2-(piperidin-4-yloxy)isonicotinamide]	5.32	–	–	–	6.7	–	–
5.91	–	< 5.00	7.23	6.00	5.45	6.94	–	–	–	–	–	–	CCN(CC)CC(=O)Nc1cc2cc(-c3cnn(C)c3CN3CCCCC3)ncc2cn1 [Compound 3910, 2-(Diethylamino)-N-(6-(1-methyl-5-(piperidin-1-ylmethyl)-1H-pyrazol-4-yl)-2,7-naphthyridin-3-yl)acetamide]	5.97	–	–	–	4.2	–	–
5.87	–	< 5.00	8.22	6.24	5.62	7.10	–	–	–	–	–	–	Cn1ncc(-c2cc3cc(NC(=O)c4ccnc(N5CCOCC5)c4)ncc3cn2)c1CN1CCOCC1 [Compound 3941, N-(6-(1-methyl-5-(morpholinomethyl)-1H-pyrazol-4-yl)-2,7-naphthyridin-3-yl)-2-morpholinoisonicotinamide]	5.92	–	–	–	5.5	–	–
6.42	–	5.51	8.70	7.43	6.10	9.00	–	–	–	–	–	–	O=C(Nc1cc2cc(-c3cncc(NCC4(F)CNC4)n3)ncc2cn1)C1CC1 [Compound 4498, N-(6-(6-(((3-Fluoroazetidin-3-yl)methyl)amino)pyrazin-2-yl)-2,7-naphthyridin-3-yl)cyclopropanecarboxamide]	6.36	–	–	–	–	–	–
5.49	–	< 5.00	8.22	5.00	5.57	6.79	–	–	–	–	–	–	Cn1cc(-c2ccc3cnc(NC(=O)c4ccc(OC5CCNCC5)cc4)nc3c2)nn1 [Compound 4573, N-(7-(1-Methyl-1H-1,2,3-triazol-4-yl)quinazolin-2-yl)-4-(piperidin-4-yloxy) benzamide]	< 5.00	–	9.3	–	9.6	–	–
